# Target: T1, Receptor-interacting serine/threonine-protein kinase 1 (Homo sapiens, UniProt Q13546)
# T1 sequence (Q13546 whole entry): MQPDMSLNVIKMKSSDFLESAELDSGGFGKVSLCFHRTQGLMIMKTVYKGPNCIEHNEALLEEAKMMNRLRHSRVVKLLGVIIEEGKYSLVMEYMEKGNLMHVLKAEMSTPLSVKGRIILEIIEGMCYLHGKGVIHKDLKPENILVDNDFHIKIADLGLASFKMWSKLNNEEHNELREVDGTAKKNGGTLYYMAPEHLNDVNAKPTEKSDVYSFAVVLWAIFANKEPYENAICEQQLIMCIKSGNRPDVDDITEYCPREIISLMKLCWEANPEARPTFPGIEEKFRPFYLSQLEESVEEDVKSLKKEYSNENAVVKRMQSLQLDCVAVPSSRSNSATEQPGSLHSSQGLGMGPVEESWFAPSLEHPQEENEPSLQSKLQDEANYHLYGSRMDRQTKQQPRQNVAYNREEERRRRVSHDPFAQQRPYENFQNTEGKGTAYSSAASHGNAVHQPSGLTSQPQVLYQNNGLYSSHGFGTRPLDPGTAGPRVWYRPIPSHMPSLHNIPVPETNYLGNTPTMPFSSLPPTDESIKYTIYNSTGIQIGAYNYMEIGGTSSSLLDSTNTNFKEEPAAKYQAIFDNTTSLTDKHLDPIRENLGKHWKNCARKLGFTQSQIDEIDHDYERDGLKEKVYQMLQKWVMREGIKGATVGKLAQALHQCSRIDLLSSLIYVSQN
# Assay: Fluorescent Polarization Binding (FP Binding) assay
# From the text: For negative control the enzyme addition was replaced by assay buffer only.
smiles,measurement,value
"O=C(N[C@H]1COc2ccccc2-n2cnnc21)c1cc(Cc2ccccc2)[nH]n1 [US9815850, Compound 70A]",IC50,in the range around 500 nM
